What was measured:
p-AXL = target: T1, p-AXL (Homo sapiens, UniProt P30530); assay: Axl phosphorylation inhibition ELISA in HEK293T cells transfected with NanoLuc-tagged AXL; type: cell-based; details: 1 h compound incubation, media (OptiMEM)
T1 construct: expressed in transfected cells; host or cells: HEK293T
T1 sequence (P30530 26-894): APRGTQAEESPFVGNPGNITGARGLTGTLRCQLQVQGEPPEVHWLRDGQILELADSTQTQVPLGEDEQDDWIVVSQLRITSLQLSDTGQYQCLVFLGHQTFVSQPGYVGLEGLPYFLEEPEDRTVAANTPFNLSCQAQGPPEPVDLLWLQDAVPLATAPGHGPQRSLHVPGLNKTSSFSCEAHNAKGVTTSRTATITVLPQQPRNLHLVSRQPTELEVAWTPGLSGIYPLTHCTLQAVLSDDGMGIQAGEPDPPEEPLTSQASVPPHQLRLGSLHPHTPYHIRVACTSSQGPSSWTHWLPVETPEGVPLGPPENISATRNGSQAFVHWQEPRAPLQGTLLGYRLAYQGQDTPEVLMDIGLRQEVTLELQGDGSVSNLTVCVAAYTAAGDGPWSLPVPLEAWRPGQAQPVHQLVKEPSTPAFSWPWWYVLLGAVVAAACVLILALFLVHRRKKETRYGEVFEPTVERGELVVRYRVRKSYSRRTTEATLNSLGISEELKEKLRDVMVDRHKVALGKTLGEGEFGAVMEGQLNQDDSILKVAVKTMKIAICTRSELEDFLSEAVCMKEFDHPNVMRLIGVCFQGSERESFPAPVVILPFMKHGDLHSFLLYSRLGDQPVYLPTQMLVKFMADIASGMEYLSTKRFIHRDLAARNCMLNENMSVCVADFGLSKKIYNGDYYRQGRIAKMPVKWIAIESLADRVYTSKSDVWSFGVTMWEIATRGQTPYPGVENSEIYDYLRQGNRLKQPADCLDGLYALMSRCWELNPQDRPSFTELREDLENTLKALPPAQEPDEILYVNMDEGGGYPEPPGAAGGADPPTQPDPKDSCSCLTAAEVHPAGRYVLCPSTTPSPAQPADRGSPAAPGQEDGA
Method: [formula] Measurement of Axl Phosphorylation Inhibition
The dose-response assays were performed in S-Bio PrimeSurface® 3D culture: Ultra-low Attachment Plates: 384 well, U bottom (#MS-9384UZ) containing 400 nL of 22 serial 2-fold compound dilutions using Bravo and Echo. ELISA assay was performed on Pierce™ streptavidin coated high capacity 384-well white plates (Thermofisher Cat #15505). The plates were coated overnight at 4° C. with 50 μl/well of biotinlyated phospho-tyrosine mouse mAb (Cell Signaling Technology, 9417s).
HEK293T cells were grown in DMEM containing 10% FBS, 1% Pen/Strep, 1% G-Max. A day before the assay, cells were transiently transfected with 6.8 μg of NanoLuc-tagged AXL plasmid DNA and 8 μg of carrier DNA using FuGENE® HD Transfection Reagent (Promega) according to manufacturer's instructions. On the day of the assay, transfected cells were harvested and resuspended in OptiMEM. 70,000 cells/well were added to the compounds containing assay plates. After a gentle mix and a short spin, the plates were incubated at 37° C. After 1 h, the cells were lysed followed by a brief centrifugation and 30 min of shaking at 300 rpm. Meanwhile, the antibody coated plates were brought to room temperature and then were washed ten times in PBS with 0.05% Tween 20 (ELISA-wash buffer). 50 μl/well of cell lysate was transferred to the ELISA plates and shaken for 2 hours. After washing again with the ELISA wash buffer, the samples were diluted with 25 μl of PBS. The captured NanoLuc tagged p-AXL was detected using Nano-Glo® Luciferase Assay System (Promega) and manufacturer's instruction. The luminescence signal was measured using Envision plate reader. IC50 values were determined by fitting the data to a standard 4-parameter logistic equation.

Axl = target: T2, Axl (Homo sapiens, UniProt P30530); assay: Biochemical potency, HTRF KinEASE-TK kinase assay; parameters: purchased Invitrogen; details: 5 nM AXL, 700 μM ATP
T2 sequence (P30530 26-894): T1 sequence (P30530 26-894)
Method: Measurement of Biochemical Compound Potency of Axl Inhibitors
Purified recombinant human AXL, TYRO3 and MER proteins were purchased from Invitrogen™. 10 nM AXL, 2 nM TYRO3 or MER were incubated with varying concentrations of compounds in 50 mM HEPES, pH 7.4, 10 mM MgCl2, 0.01% BSA, 1 mM DTT and 2% DMSO in a total volume of 20 μl in a 384-well microplate (Corning™ #3640) at RT for 1 h. The AXL, TYRO3 and MER enzymatic reaction was initiated by transferring 10 μl of enzyme and compound mixture into 10 μl of 1.6 μM TK Substrate-biotin (HTRF® KinEASE-TK kit, Cisbio) and 1400 μM ATP pre-incubated in 50 mM HEPES, pH 7.4, 10 mM MgCl2, 0.01% BSA, 1 mM DTT in a 384-well microplate (Corning™ #3640) at RT, giving the final reaction conditions: 5 nM AXL, 1 nM TYRO3 or MER, 800 nM TK Substrate-biotin and 700 μM ATP in 50 mM HEPES, pH 7.4, 10 mM MgCl2, 0.01% BSA, 1 mM DTT and 1% DMSO with varying concentrations of compounds. Following 2 h incubation at RT, the AXL, TYRO3 and MER enzymatic reaction was stopped by transfer of 10 μl of reaction into 10 μl of detection mix (400 nM Streptavidin-XL665, 200-fold dilution TK Antibody-Cryptate and detection buffer, HTRF® KinEASE-TK kit, Cisbio) in a white 384-well microplate (Perkin Elmer, OptiPlate 384). After 1 h incubation at RT, the plate was put into a plate reader (Evision) to read at 665/620 nm (acceptor/donor) for HTRF. The value of the DMSO blank (MIN inhibition=100% activity) was used as a negative control. The positive control was established by adding 5 μl of enzyme and DMSO mixture into 10 μl of detection mix followed by addition of 5 μl of TK Substrate-biotin and ATP mixture (MAX inhibition=0% activity). To calculate the percent activity, Equation 1 was used. Ratio665/620 is the value at a given compound concentration: […]

SMILES | IC50 (p-AXL) [nM] | IC50 (Axl) [nM]
Cc1cc(C)c(-c2ccc(-c3c[nH]c4ncc(-c5ccc6c(c5)CC[C@@H](N5C7COCC5C7)CC6)cc34)cc2)cn1 [Example 196, 6-[(7S)-2-{3-[4-(4,6-Dimethylpyridin-3-yl)phenyl]-1H-pyrrolo[2,3-b]pyridin-5-yl}-6,7,8,9-tetrahydro-5H-benzo[7]annulen-7-yl]-3-oxa-6-azabicyclo[3.1.1]heptane] | 100 to 1000 | < 100
Cc1ccc(C#N)c(-c2ccc(-c3c[nH]c4ncc(-c5ccc6c(c5)CC[C@@H](N5C7COCC5C7)CC6)cc34)cc2)n1 [Example 72, 6-Methyl-2-(4-{5-[(7S)-7-{3-oxa-6-azabicyclo[3.1.1]heptan-6-yl}-6,7,8,9-tetrahydro-5H-benzo[7]annulen-2-yl]-1H-pyrrolo[2,3-b]pyridin-3-yl}phenyl)pyridine-3-carbonitrile] | 100 to 1000 | < 100
Cn1ncnc1-c1ccc(-c2c[nH]c3ncc(-c4ccc5c(c4)CC[C@@H](N4C6COCC4C6)CC5)cc23)cc1 [Example 133, 6-[(7S)-2-{3-[4-(1-Methyl-1H-1,2,4-triazol-5-yl)phenyl]-1H-pyrrolo[2,3-b]pyridin-5-yl}-6,7,8,9-tetrahydro-5H-benzo[7]annulen-7-yl]-3-oxa-6-azabicyclo[3.1.1]heptane] | < 100 | < 100
Cc1ccc(C)c(-c2ccc(-c3c[nH]c4ncc(-c5ccc6c(c5)CC[C@@H](N5C7COCC5C7)CC6)cc34)cc2C)n1 [Example 191, 6-[(7S)-2-{3-[4-(3,6-Dimethylpyridin-2-yl)-3-methylphenyl]-1H-pyrrolo[2,3-b]pyridin-5-yl}-6,7,8,9-tetrahydro-5H-benzo[7]annulen-7-yl]-3-oxa-6-azabicyclo[3.1.1]heptane] | < 100 | < 100
Cc1cnc(-c2ccc(-c3n[nH]c4ncc(-c5ccc6c(c5)CC[C@@](C)(N5CCC[C@H]5C)CC6)cc34)cc2)c(C)n1 [Example 188, 3,5-Dimethyl-2-(4-{5-[(7S)-7-methyl-7-[(2R)-2-methylpyrrolidin-1-yl]-6,7,8,9-tetrahydro-5H-benzo[7]annulen-2-yl]-1H-pyrazolo[3,4-b]pyridin-3-yl}phenyl)pyrazine] | < 100 | < 100
Cc1cccc(C#N)c1-c1ccc(-c2c[nH]c3ncc(-c4ccc5c(c4)CC[C@@H](N4C6COCC4C6)CC5)cc23)nc1 [Example 197, 3-Methyl-2-(6-{5-[(7S)-7-{3-oxa-6-azabicyclo[3.1.1]heptan-6-yl}-6,7,8,9-tetrahydro-5H-benzo[7]annulen-2-yl]-1H-pyrrolo[2,3-b]pyridin-3-yl}pyridin-3-yl)benzonitrile] | 100 to 1000 | < 100
Cc1cnc(-c2ccc(-c3n[nH]c4ncc(-c5ccc6c(c5)CC[C@@H](N5CCCC5)CC6)cc34)cc2)c(C)n1 [Example 189, 3,5-Dimethyl-2-(4-{5-[(7S)-7-(pyrrolidin-1-yl)-6,7,8,9-tetrahydro-5H-benzo[7]annulen-2-yl]-1H-pyrazolo[3,4-b]pyridin-3-yl}phenyl)pyrazine] | 100 to 1000 | < 100
COCCN1CCc2ccc(-c3cnc4[nH]nc(-c5ccc(-c6ncccc6C)cc5)c4c3)cc2CC1 [Example 15, 3-(2-Methoxyethyl)-7-{3-[4-(3-methylpyridin-2-yl)phenyl]-1H-pyrazolo[3,4-b]pyridin-5-yl}-2,3,4,5-tetrahydro-1H-3-benzazepine] | 100 to 1000 | < 100
CO[C@H]1C[C@@H](N[C@H]2CCc3ccc(-c4cnc5[nH]nc(-c6ccc(-c7ncccc7C)cn6)c5c4)cc3CC2)C1 [Example 108, (7S)-2-(3-{3-Methyl-[2,3′-bipyridin]-6′-yl}-1H-pyrazolo[3,4-b]pyridin-5-yl)-N-[cis-3-methoxycyclobutyl]-6,7,8,9-tetrahydro-5H-benzo[7]annulen-7-amine] | < 100 | < 100
Cc1ccc(C(C)(C)O)nc1-c1ccc(-c2n[nH]c3ncc(-c4ccc5c(c4)CC[C@@H](N4C6COCC4C6)CC5)cc23)cc1 [Example 192, 2-[5-Methyl-6-(4-{5-[(7S)-7-{3-oxa-6-azabicyclo[3.1.1]heptan-6-yl}-6,7,8,9-tetrahydro-5H-benzo[7]annulen-2-yl]-1H-pyrazolo[3,4-b]pyridin-3-yl}phenyl)pyridin-2-yl]propan-2-ol] | 100 to 1000 | < 100
Cc1ccc(-c2ccc(-c3c[nH]c4ncc(-c5ccc6c(c5)CC[C@@H](N5C7COCC5C7)CC6)cc34)cc2)c(C)n1 [Example 73, 6-[(7S)-2-{3-[4-(2,6-Dimethylpyridin-3-yl)phenyl]-1H-pyrrolo[2,3-b]pyridin-5-yl}-6,7,8,9-tetrahydro-5H-benzo[7]annulen-7-yl]-3-oxa-6-azabicyclo[3.1.1]heptane] | 100 to 1000 | < 100
Cn1ncnc1-c1ccc(-c2n[nH]c3ncc(-c4ccc5c(c4)CC[C@@H](N[C@H]4CCCOC4)CC5)cc23)cc1 [Example 134] | < 100 | < 100
Cc1ccc(C)c(-c2ccc(-c3n[nH]c4ncc(-c5ccc6c(c5)CC[C@@H](N5C7COCC5C7)CC6)cc34)cc2C)n1 [Example 185, 6-[(7S)-2-{3-[4-(3,6-Dimethylpyridin-2-yl)-3-methylphenyl]-1H-pyrazolo[3,4-b]pyridin-5-yl}-6,7,8,9-tetrahydro-5H-benzo[7]annulen-7-yl]-3-oxa-6-azabicyclo[3.1.1]heptane] | 100 to 1000 | < 100
Cc1ccc(C)c(-c2ccc(-c3c[nH]c4ncc(-c5ccc6c(c5)CC[C@@](C)(N5CCC[C@H]5C)CC6)cc34)cc2)n1 [Example 147, 3,6-Dimethyl-2-(4-{5-[(7S)-7-methyl-7-[(2R)-2-methylpyrrolidin-1-yl]-6,7,8,9-tetrahydro-5H-benzo[7]annulen-2-yl]-1H-pyrrolo[2,3-b]pyridin-3-yl}phenyl)pyridine] | < 100 | < 100

— patent publication US12195482B1 (Arcus Biosciences, Inc., priority 2022, dated 2025)
